Several values for one entry are separate records, joined by “and”; a condition that tells them apart may be missing. Equal entries are not always repeated.
Key:
[1] = In vitro binding to hydroxyapatite; details: 20 mg hydroxyapatite in saline, 10 min at room temperature
Method: Hydroxyapatite (20 mg, Sigma-Aldrich, reagent grade powder) was incubated in isotonic saline (1 mL) for 24 h. Subsequently, either ^68Ga labeled 1a-h, 2, 3, BPAMD, or [^18F]NaF (1 μCi) was added to the hydroxyapatite suspension. After vortexing for 10 seconds, the suspension was incubated for 10 min at room temperature. The samples were then centrifuged at 10,000 rpm for 3 min and the supernatant was removed. The hydroxyapatite fraction was washed twice with saline (1 mL). Radioactivity in the combined supernatants and the hydroxyapatite fraction was measured using a gamma counter. The proportion of the ^68Ga complex binding to hydroxyapatite was determined as percent of ^68Ga absorbed to hydroxyapatite.

[2] = In vivo biodistribution in mice; design: species or system normal CD-1 male mice; details: for bone to blood ratio / bone to muscle ratio / Biodistribution: Blood / Biodistribution: Bone / Biodistribution: Brain / Biodistribution: Heart / Biodistribution: Kidney / Biodistribution: Liver / Biodistribution: Lung / Biodistribution: Muscle / Biodistribution: Pancreas / Biodistribution: Skin / Biodistribution: Spleen: iv
Method: Biodistribution experiments were performed by intravenously administering ^68Ga labeled 1a-h, 2, 3, BPAMD, and [^18F]NaF into normal, healthy male CD-1 mice (25-30 g). The injection activity was 20-30 μCi/animal. […] Organs of interest were harvested, weighed, and counts of radioactivity were measured by a gamma counter. The biodistribution of each sample was calculated as a percentage of the injected dose per gram of wet tissue weight (% ID/g). Tibia and femur bones were harvested and counted as bone samples.

O=C([O-])CN(CCN(CC(=O)[O-])Cc1cc(CCC(=O)NC(P(=O)(O)O)P(=O)(O)O)ccc1[O-])Cc1cc(CCC(=O)NCCNC(=O)CN2CCN(CC(=O)O)CCN(CC(=O)O)CCN(CC(=O)O)CC2)ccc1[O-].[68Ga+3] [[^68Ga]1h]
Hydroxyapatite Binding (%) [1]: 96.7 ± 0.9%
bone to blood ratio ([2]; 2 min): 0.9
bone to muscle ratio ([2]; 2 min): 4.3
Biodistribution: Blood ([2]; 2 min post injection): 9.69 ± 1.49 % dose/g
Biodistribution: Bone ([2]; 2 min post injection): 8.31 ± 0.84 % dose/g
Biodistribution: Brain ([2]; 2 min post injection): 0.24 ± 0.03 % dose/g
Biodistribution: Heart ([2]; 2 min post injection): 3.10 ± 0.35 % dose/g
Biodistribution: Kidney ([2]; 2 min post injection): 18.2 ± 1.65 % dose/g
Biodistribution: Liver ([2]; 2 min post injection): 1.99 ± 0.29 % dose/g
Biodistribution: Lung ([2]; 2 min post injection): 4.35 ± 0.52 % dose/g
Biodistribution: Muscle ([2]; 2 min post injection): 1.92 ± 0.14 % dose/g
Biodistribution: Pancreas ([2]; 2 min post injection): 1.48 ± 0.27 % dose/g
Biodistribution: Skin ([2]; 2 min post injection): 2.31 ± 0.25 % dose/g
Biodistribution: Spleen ([2]; 2 min post injection): 1.91 ± 0.48 % dose/g
bone to blood ratio ([2]; 30 min): 27
bone to muscle ratio ([2]; 30 min): 85
Biodistribution: Blood ([2]; 30 min (0.5 hr) post injection): 0.45 ± 0.07 % dose/g
Biodistribution: Bone ([2]; 30 min (0.5 hr) post injection): 12.1 ± 0.84 % dose/g
Biodistribution: Brain ([2]; 30 min (0.5 hr) post injection): 0.02 ± 0.01 % dose/g
Biodistribution: Heart ([2]; 30 min (0.5 hr) post injection): 0.24 ± 0.12 % dose/g
Biodistribution: Kidney ([2]; 30 min (0.5 hr) post injection): 2.07 ± 0.62 % dose/g
Biodistribution: Liver ([2]; 30 min (0.5 hr) post injection): 0.15 ± 0.05 % dose/g
Biodistribution: Lung ([2]; 30 min (0.5 hr) post injection): 0.31 ± 0.05 % dose/g
Biodistribution: Muscle ([2]; 30 min (0.5 hr) post injection): 0.14 ± 0.04 % dose/g
Biodistribution: Pancreas ([2]; 30 min (0.5 hr) post injection): 0.09 ± 0.03 % dose/g
Biodistribution: Skin ([2]; 30 min (0.5 hr) post injection): 0.39 ± 0.13 % dose/g
Biodistribution: Spleen ([2]; 30 min (0.5 hr) post injection): 0.13 ± 0.03 % dose/g
bone to blood ratio ([2]; 60 min): 112
bone to muscle ratio ([2]; 60 min): 233
Biodistribution: Blood ([2]; 60 min (1 hr) post injection): 0.11 ± 0.05 % dose/g
Biodistribution: Bone ([2]; 60 min (1 hr) post injection): 11.9±1.3 % dose/g and 11.9 ± 1.31 % dose/g
Biodistribution: Brain ([2]; 60 min (1 hr) post injection): 0.01 ± 0.00 % dose/g
Biodistribution: Heart ([2]; 60 min (1 hr) post injection): 0.08 ± 0.01 % dose/g
Biodistribution: Kidney ([2]; 60 min (1 hr) post injection): 1.13 ± 0.08 % dose/g
Biodistribution: Liver ([2]; 60 min (1 hr) post injection): 0.07 ± 0.01 % dose/g
Biodistribution: Lung ([2]; 60 min (1 hr) post injection): 0.14 ± 0.03 % dose/g
Biodistribution: Muscle ([2]; 60 min (1 hr) post injection): 0.05 ± 0.01 % dose/g
Biodistribution: Pancreas ([2]; 60 min (1 hr) post injection): 0.05 ± 0.02 % dose/g
Biodistribution: Skin ([2]; 60 min (1 hr) post injection): 0.11 ± 0.02 % dose/g
Biodistribution: Spleen ([2]; 60 min (1 hr) post injection): 0.07 ± 0.01 % dose/g
bone to blood ratio ([2]; 120 min): 305
bone to muscle ratio ([2]; 120 min): 383
Biodistribution: Blood ([2]; 120 min post injection): 0.04 ± 0.01 % dose/g
Biodistribution: Bone ([2]; 120 min post injection): 12.0 ± 0.82 % dose/g
Biodistribution: Brain ([2]; 120 min post injection): 0.01 ± 0.01 % dose/g
Biodistribution: Heart ([2]; 120 min post injection): 0.05 ± 0.01 % dose/g
Biodistribution: Kidney ([2]; 120 min post injection): 1.67 ± 0.54 % dose/g
Biodistribution: Liver ([2]; 120 min post injection): 0.09 ± 0.04 % dose/g
Biodistribution: Lung ([2]; 120 min post injection): 0.10 ± 0.01 % dose/g
Biodistribution: Muscle ([2]; 120 min post injection): 0.03 ± 0.00 % dose/g
Biodistribution: Pancreas ([2]; 120 min post injection): 0.04 ± 0.01 % dose/g
Biodistribution: Skin ([2]; 120 min post injection): 0.07 ± 0.01 % dose/g
Biodistribution: Spleen ([2]; 120 min post injection): 0.07 ± 0.01 % dose/g
Biodistribution result in words (organ uptake, retention, excretion) ([2]; normal mice after iv injection): excellent bone uptake and fast kidney excretion

— patent US10253052B2, “HBED-bisphosphonates, radiometal conjugates and their use as theranostic agents” (Five Eleven Pharma Inc., priority 2015, dated 2019)
